Laboratory results: PubChem BioAssay AID330 (DTP/NCI, 2004)
Several values for one entry are separate records, joined by “and”; a condition that tells them apart may be missing. Equal entries are not always repeated. Inconclusive results and toxic doses are left out. Rule for the calls: active = survival T/C of 150% or more; inactive = T/C below 125% in these data.

System: P388 leukemia ip, CD2F1 mice, survival T/C
Assay: NCI In Vivo Anticancer Drug Screen. Data for tumor model P388 Leukemia (intraperitoneal) in CD2F1 (CDF1) mice
Conditions: endpoint: median survival time, higher = longer survival
Method in brief: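 Mice carrying the transplanted tumor received test compound or vehicle. Survival was recorded in each group, and the value is the treated-group measurement divided by that of the vehicle-treated control group.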

[1] = dose: 100.0 mg/kg/injection, schedule: Q04DX002 (ip), vehicle: Klucel (hydroxypropylcellulose) (HPC)
[2] = dose: 25.0 mg/kg/injection, schedule: Q01DX009 (ip), vehicle: saline with Tween-80
[3] = dose: 50.0 mg/kg/injection, schedule: Q01DX009 (ip), vehicle: saline with Tween-80

Measured: T/C

C1NNCC12CNNC2
inactive: dose: 100.0 mg/kg/injection, schedule: Q04DX003 (ip), vehicle: suspension in saline 94 % of control | dose: 200.0 mg/kg/injection, schedule: Q04DX003 (ip), vehicle: suspension in saline 94 % of control | dose: 400.0 mg/kg/injection, schedule: Q04DX003 (ip), vehicle: suspension in saline 90 % of control

COC(=O)c1cc(=O)n(-c2ccccc2)c(SC)n1
inactive: dose: 6.25 mg/kg/injection, schedule: Q04DX002 (ip), vehicle: Klucel (hydroxypropylcellulose) (HPC) 106 % of control | dose: 12.5 mg/kg/injection, schedule: Q04DX002 (ip), vehicle: Klucel (hydroxypropylcellulose) (HPC) 96 % of control | dose: 25.0 mg/kg/injection, schedule: Q04DX002 (ip), vehicle: Klucel (hydroxypropylcellulose) (HPC) 98 % of control | dose: 50.0 mg/kg/injection, schedule: Q04DX002 (ip), vehicle: Klucel (hydroxypropylcellulose) (HPC) 104 % of control | [1] 100 % of control and 98 % of control

COC(=O)C1(C)CCCC2(C)c3cc(OC)ccc3C3(CC12)OCCO3 (stereo not given)
inactive: dose: 5.0 mg/kg/injection, schedule: Q01DX009 (ip), vehicle: saline 98 % of control | dose: 10.0 mg/kg/injection, schedule: Q01DX009 (ip), vehicle: saline 95 % of control | dose: 20.0 mg/kg/injection, schedule: Q01DX009 (ip), vehicle: saline 89 % of control

CN(C)CN1C(=O)S/C(=C2\C(=O)N(CN(C)C)c3ccccc32)C1=O
inactive: dose: 30.0 mg/kg/injection, schedule: Q01DX005 (ip), vehicle: Klucel (hydroxypropylcellulose) (HPC) 118 % of control | dose: 60.0 mg/kg/injection, schedule: Q01DX005 (ip), vehicle: Klucel (hydroxypropylcellulose) (HPC) 120 % of control and 121 % of control | dose: 120.0 mg/kg/injection, schedule: Q01DX005 (ip), vehicle: Klucel (hydroxypropylcellulose) (HPC) 113 % of control | dose: 240.0 mg/kg/injection, schedule: Q01DX005 (ip), vehicle: Klucel (hydroxypropylcellulose) (HPC) 120 % of control

N=C1CCC(=N)c2c1c(O)c1ccccc1c2O
inactive: dose: 6.25 mg/kg/injection, schedule: Q01DX005 (ip), vehicle: saline with Tween-80 94 % of control | dose: 12.5 mg/kg/injection, schedule: Q01DX005 (ip), vehicle: saline with Tween-80 104 % of control | dose: 25.0 mg/kg/injection, schedule: Q01DX005 (ip), vehicle: saline with Tween-80 94 % of control

O=C1SC(Nc2ccccc2)/C(=N\N=C2/C(Nc3ccccc3)SC(=O)N2Cc2ccccc2)N1Cc1ccccc1 (stereo not given)
inactive: [1] 86 % of control | dose: 200.0 mg/kg/injection, schedule: Q04DX002 (ip), vehicle: Klucel (hydroxypropylcellulose) (HPC) 94 % of control | dose: 400.0 mg/kg/injection, schedule: Q04DX002 (ip), vehicle: Klucel (hydroxypropylcellulose) (HPC) 91 % of control

N=Nc1c(OC(=O)Nc2ccccc2)[nH]c2ccccc12
inactive: dose: 50.0 mg/kg/injection, schedule: Q01DX005 (ip), vehicle: Klucel (hydroxypropylcellulose) (HPC) 90 % of control | dose: 100.0 mg/kg/injection, schedule: Q01DX005 (ip), vehicle: Klucel (hydroxypropylcellulose) (HPC) 90 % of control | dose: 200.0 mg/kg/injection, schedule: Q01DX005 (ip), vehicle: Klucel (hydroxypropylcellulose) (HPC) 87 % of control

CC(=O)[C@@]1(O)CC[C@H]2[C@@H]3C=C(C)C4=CC(=O)CC[C@]4(C)[C@@]3(F)[C@@H](O)C[C@@]21C
inactive: dose: 12.5 mg/kg/injection, schedule: Q01DX009 (ip), vehicle: saline with Tween-80 100 % of control | [2] 90 % of control | [3] 109 % of control | dose: 100.0 mg/kg/injection, schedule: Q04DX003 (ip), vehicle: saline with Tween-80 91 % of control | dose: 200.0 mg/kg/injection, schedule: Q04DX003 (ip), vehicle: saline with Tween-80 95 % of control | dose: 400.0 mg/kg/injection, schedule: Q04DX003 (ip), vehicle: saline with Tween-80 100 % of control

CC(C)C(N)C(=O)Nc1nncs1 (stereo not given)
active: dose: 200.0 mg/kg/injection, schedule: Q04DX002 (ip), vehicle: saline 183 % of control | dose: 400.0 mg/kg/injection, schedule: Q04DX002 (ip), vehicle: saline 157 % of control and 190 % of control | dose: 600.0 mg/kg/injection, schedule: Q04DX002 (ip), vehicle: saline 171 % of control
inactive: dose: 100.0 mg/kg/injection, schedule: Q04DX002 (ip), vehicle: saline 106 % of control

O=C(OCC(Cl)(Cl)Cl)N1CCCCC1
inactive: [2] 98 % of control | [3] 92 % of control | dose: 100.0 mg/kg/injection, schedule: Q01DX009 (ip), vehicle: saline with Tween-80 102 % of control

CCOP(=O)(Cc1ccc(-c2nc3ccccc3o2)cc1)OCC
inactive: dose: 50.0 mg/kg/injection, schedule: Q01DX009 (ip), vehicle: saline 103 % of control | dose: 100.0 mg/kg/injection, schedule: Q01DX009 (ip), vehicle: saline 100 % of control | dose: 200.0 mg/kg/injection, schedule: Q01DX009 (ip), vehicle: saline 99 % of control
